Source: ChEMBL document CHEMBL1201862, “PubChem BioAssay data set” (2004)
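Tested at 5 concentrations; 48 h exposure; 96-well plates; endpoints linearly interpolated, else capped at highest concentration. GI50 is the concentration that inhibits growth by half.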 Calls of active or inactive are those of the source. No stated cut-off is given here; in the data, active = GI50 up to about 1.1 µM and inactive = higher.

Assays:
Experiment in all cases: inhibition of tumour cell growth, NCI panel, 48 h
IGROV-1 = test system: IGROV-1
MCF7 = test system: MCF7
MDA-MB-231 = test system: MDA-MB-231
Hs-578T = test system: Hs-578T
SW-620 = test system: SW-620
UACC-62 = test system: UACC-62
NCI-H522 = test system: NCI-H522
T47D = test system: T47D
SNB-19 = test system: SNB-19
OVCAR-5 = test system: OVCAR-5
786-0 = test system: 786-0
NCI/ADR-RES = test system: NCI/ADR-RES
BT-549 = test system: BT-549
NCI-H460 = test system: NCI-H460
TK-10 = test system: TK-10
COLO 205 = test system: COLO 205
HCT-116 = test system: HCT-116
NCI-H226 = test system: NCI-H226
CAKI-1 = test system: CAKI-1
HOP-62 = test system: HOP-62
A498 = test system: A498
SK-MEL-2 = test system: SK-MEL-2
LOX IMVI = test system: LOX IMVI
U-251 = test system: U-251
NCI-H23 = test system: NCI-H23
HCT-15 = test system: HCT-15
SN12C = test system: SN12C
UACC-257 = test system: UACC-257
SR = test system: SR
RXF 393 = test system: RXF 393
ACHN = test system: ACHN
SK-MEL-5 = test system: SK-MEL-5
MDA-N = test system: MDA-N
SK-MEL-28 = test system: SK-MEL-28
SF-295 = test system: SF-295
UO-31 = test system: UO-31
OVCAR-4 = test system: OVCAR-4
HL-60 = test system: HL-60
RPMI-8226 = test system: RPMI-8226
OVCAR-3 = test system: OVCAR-3
HCC 2998 = test system: HCC 2998
HOP-92 = test system: HOP-92
SNB-75 = test system: SNB-75
OVCAR-8 = test system: OVCAR-8
SF-268 = test system: SF-268
HT-29 = test system: HT-29
Malme-3M = test system: Malme-3M
DU-145 = test system: DU-145
PC-3 = test system: PC-3
A549 = test system: A549
SF-539 = test system: SF-539
SK-OV-3 = test system: SK-OV-3
KM12 = test system: KM12
M14 = test system: M14
EKVX = test system: EKVX
MOLT-4 = test system: MOLT-4
K562 = test system: K562
MDA-MB-435 = test system: MDA-MB-435

Structure (SMILES): CCOc1cc(/C=N/c2nc3cc4sc(/N=C/c5ccc(O)c(OCC)c5)nc4cc3s2)ccc1O
- GI50 (IGROV-1): > 100 µM (inactive)
- GI50 (MCF7): 82 µM (inactive)
- GI50 (MDA-MB-231): > 100 µM (inactive)
- GI50 (Hs-578T): > 100 µM (inactive)
- GI50 (SW-620): 38.7 µM (inactive)
- GI50 (UACC-62): > 100 µM (inactive)
- GI50 (NCI-H522): 50.4 µM (inactive)
- GI50 (T47D): > 100 µM (inactive)
- GI50 (SNB-19): > 100 µM (inactive)
- GI50 (OVCAR-5): > 100 µM (inactive)
- GI50 (786-0): > 100 µM (inactive)
- GI50 (NCI/ADR-RES): > 100 µM (inactive)
- GI50 (BT-549): > 100 µM (inactive)
- GI50 (NCI-H460): 20.4 µM (inactive)
- GI50 (TK-10): > 100 µM (inactive)
- GI50 (COLO 205): 24.7 µM (inactive)
- GI50 (HCT-116): > 100 µM (inactive)
- GI50 (NCI-H226): 25.8 µM (inactive)
- GI50 (CAKI-1): > 100 µM (inactive)
- GI50 (HOP-62): > 100 µM (inactive)
- GI50 (A498): > 100 µM (inactive)
- GI50 (SK-MEL-2): > 100 µM (inactive)
- GI50 (LOX IMVI): 55.8 µM (inactive)
- GI50 (U-251): > 100 µM (inactive)
- GI50 (NCI-H23): > 100 µM (inactive)
- GI50 (HCT-15): > 100 µM
- GI50 (SN12C): 76.7 µM (inactive)
- GI50 (UACC-257): > 100 µM (inactive)
- GI50 (SR): 12.9 µM (inactive)
- GI50 (RXF 393): > 100 µM (inactive)
- GI50 (ACHN): > 100 µM (inactive)
- GI50 (SK-MEL-5): 71.8 µM (inactive)
- GI50 (MDA-N): 93.3 µM (inactive)
- GI50 (SK-MEL-28): 21.3 µM (inactive)
- GI50 (SF-295): > 100 µM (inactive)
- GI50 (UO-31): > 100 µM (inactive)
- GI50 (OVCAR-4): > 100 µM (inactive)
- GI50 (HL-60): 3.62 µM (inactive)
- GI50 (RPMI-8226): > 100 µM (inactive)
- GI50 (OVCAR-3): > 100 µM (inactive)
- GI50 (HCC 2998): > 100 µM (inactive)
- GI50 (HOP-92): > 100 µM (inactive)
- GI50 (SNB-75): > 100 µM (inactive)
- GI50 (OVCAR-8): > 100 µM (inactive)
- GI50 (SF-268): > 100 µM (inactive)
- GI50 (HT-29): 60.4 µM (inactive)
- GI50 (Malme-3M): > 100 µM (inactive)
- GI50 (DU-145): > 100 µM (inactive)
- GI50 (PC-3): > 100 µM (inactive)
- GI50 (A549): 52.4 µM (inactive)
- GI50 (SF-539): 20.7 µM (inactive)
- GI50 (SK-OV-3): > 100 µM (inactive)
- GI50 (KM12): > 100 µM (inactive)
- GI50 (M14): > 100 µM (inactive)
- GI50 (EKVX): 79.1 µM (inactive)
- GI50 (MOLT-4): 30.8 µM (inactive)
- GI50 (K562): 60.5 µM (inactive)
- GI50 (MDA-MB-435): > 100 µM (inactive)
